Reference: patent US9921224B2, “Use of CD36 to identify cancer subjects for treatment” (Children's Medical Center Corporation, priority 2013, dated 2018)
Where no end group is shown, it is not given here. [ ]: non-standard residue; d: D form.

Key:
B16-B16 cells = assay: Melanoma mouse model; format: in vivo, mice; conditions: low CD36 B16-B16 melanoma; 10 or 40 mg/kg; up to about 20-25 days post cell injection
Description: For the melanoma mouse model, B16-B16 cells were injected into mice. Mice were treated with either psap peptide dWlP (SEQ ID NO: 47, 10 or 40 mg/kg) or control. The volume of the tumor was measured over time up until about 20-25 days post cell injection.

[1] = system: ovarian cancer cells expressing luciferase; assay: Ovarian cancer mouse model (luciferase intensity); format: in vivo; conditions: high CD36 ovarian cancer model
Description: For the ovarian cancer mouse model, 1 million ovarian cancer cells expressing luciferase were injected intraperitoneally. Treatment was initiated 17 days later with cisplatin (4 mg/kg QOD), the psap peptide dWlP (SEQ ID NO: 47, 40 mg/kg QD), a combination of cisplatin and psap peptide, or PBS QD. Luciferase intensity was measured on several days beginning on about day 17 and measured over time.

[2] = system: AsPc1 human pancreatic cells; assay: Pancreatic cancer mouse model; format: in vivo, SCID mice; conditions: for primary tumor mass: high CD36 AsPC pancreatic model, SCID mice, 20 or 40 mg/kg/day, from day 25 daily for 21 days
Description: For the pancreatic cancer mouse model, 1×10^6 AsPc1 human pancreatic cells were injected into the pancreas of SCID mice. Mice were treated either with a control or with the psap peptide dWlP (SEQ ID NO: 47, 20 mg/kg/day or 40/mg/kg/day). Treatment began on day 25 and continued daily for 21 days. The mice were then euthanized and the primary tumor mass was measured. The presence or absence of ascites was also measured.

LLC cells = assay: In vitro cell proliferation (MTT) assay, LLC cells; format: cell-based, murine; conditions: 48 hours after addition of serially diluted amounts
Description: Cell proliferation was measured using the MTT (3-{4,5-Dimethylthiazol-2-yl}-2,5-diphenyltetrazolium bromide, Sigma-Aldrich) assay. Cells were seeded in 50 uL growth medium in 96 well culture plates and allowed to attach overnight. 50 uL of growth medium plus two-fold concentrated treatment reagents were then added. After each treatment time point, 10 uL of 5% MTT solution (buffered in PBS) was added to each well. Plates were incubated for an additional 4 h at 37° C. to allow MTT to be metabolically converted into formazan crystals at cell mitochondria. The formazan crystals were finally solubilized by adding 100 ul of 10% Sodium Dodecyl Sulphate in 50% N—N-Dimethylformamide to each microplate well. Absorbances at 550 and 680 nm (corresponding to formazan salt and reference wavelengths, respectively) were measured using a colorimetry microplate reader. Wells containing only complete medium were used as controls. Each experiment was performed twice, using six replicates for each drug concentration.
To test this, LLC cells were treated with either recombinant Tsp-1 or DWLPK (SEQ ID NO: 2) Psap peptide and cell proliferation was measured using an MTT assay. […] This supports the hypothesis that Tsp-1 can act directly on cancer cells, as this assay was performed in vitro in the absence of any blood vessels.

[3] = system: Ovarian cancer cells expressing CD36; assay: Viability of ovarian cancer cells expressing CD36 treated with Tsp-1; format: cell-based; conditions: Tsp-1 100 ng, 500 ng or 1000 ng; 0 hours or 48 hours
Description: Ovarian cancer cells expressing CD36 were treated with either control or thrombospondin (Tsp-1, either 100 ng, 500 ng or 1000 ng) and the percent of viable cells was measured at 0 hours or 48 hours.

## dWlP: psap peptide dWlP (SEQ ID NO: 47); lower case D and L indicate D-amino acids ([dD]W[dL]P)
B16-B16 cells
  tumor growth (tumor volume over time): inhibited tumor growth but did not regress the tumor
[1]; dWlP 40 mg/kg QD
  metastatic disease: showed regression of metastatic disease
[1]; dWlP 40 mg/kg QD from day 17
  tumor response (luciferase intensity over time): caused regression of cancer
[2]
  primary tumor mass: primary tumor mass was inhibited
[2]; listed as psap peptide
  primary tumor mass: regressed
[2]; pancreatic cancer model, control: 4 of 10 mice
  mice that form ascites (inhibition of metastasis): 1 of 19

## DWLPK: DWLPK (SEQ ID NO: 2) Psap peptide, derived from a fragment of Saposin A (Psap peptide)
LLC cells
  cell proliferation (MTT assay): did not affect cell proliferation

## Tsp-1: recombinant thrombospondin (Tsp-1), a ligand of CD36
LLC cells
  cell proliferation (MTT assay): capable of decreasing cell proliferation
[3]
  percent of viable cells (Tsp-1 mediated cell killing): sensitive to Tsp-1 mediated cell killing in a dose-dependent manner
